In US6313090A, “Methods for treating parasitic infection using thiopeptides” (The United States of America as represented by the …, priority 2000, dated 2001):
Where two headings read alike, the source gives them in different places.

Tested on: C. parvum GCH1 oocysts
Assay: Intact C. parvum oocyst assay on MDBKF5D2 cell monolayers, immunofluorescence
Format: cell-based
Conditions: for inhibition at 2000 µg/mL / inhibition at 250 µg/mL / inhibition at 500 µg/mL / inhibition at 1000 µg/mL: Cryptosporidium parvum
Procedure: In vitro doses of drugs. Thiostrepton (Calbiochem) was dissolved in sterile complete Dulbecco's Modified Eagle Medium (DMEM) supplemented with dimethyl sulfoxide (DMSO) at 0.2% and tested at concentrations of 800, 400, 200, and 100, 10, 1 and 0.1 μg/ml.
(§1) Intact C. parvum oocyst asset 3.0×10^4 C. parvum GCH1 oocysts per well were incubated in the above-mentioned concentrations of drug at 37° C. (8% CO2) on confluent MDBKF5D2 cell monolayers in 96 well microtiter plates. The level of infection in each well was determined and analyzed by immunofluorescence assay at 48 hours, using C. parvum sporozoite rabbit anti-serum (0.1%) and fluorescein-conjugated goat anti-rabbit antibody (1.0%). Percent inhibition was calculated by subtracting the mean parasite/drug from the mean parasitelmedium, divided by the mean parasite/medium, all of which was multiplied by 100. The analysis was performed using MCID and an inverted microscope.
In vitro doses of drugs. Thiostrepton (Calbiochem) and Phavic (NTZ) were dissolved in sterile complete Dulbecco's Modified Eagle Medium (DMEM) supplemented with dimethyl sulfoxide (DMSO) at 0.2% and tested at concentrations of 800, 400, 200, and 100 μg/ml. NTZ was tested at concentrations of 100, 10, 1 and 0.1 μg/ml. Paromomycin (Sigma) was dissolved in DMEM and tested at concentrations of 2000, 1000, 500 and 250 μg/ml.
as §1, with “assay .” for “asset”, “plates. For some monolayers, the oocysts were incubated in DMEM on the cell monolayers for four hours, at which time the monolayers were washed and then drug was added to the wells.” for “plates.”, “parasite/medium,” for “parasitelmedium,”
In vitro doses of drugs. Thiostrepton (Calbiochem), Phavic (NTZ) were dissolved in sterile complete Dulbecco's Modified Eagle Medium (DMEM) supplemented with dimethyl sulfoxide (DMSO) at 0.2%. Thiostrepton was tested at a concentration of 800 μg/ml. NTZ was tested at a concentration of 10 μg/ml. Paromomycin was dissolved in DMEM and tested at 2000 μg/ml. Cell monolayers were infected and washed, followed by the addition of drug at time intervals of 0, 2, 4, 8 and 24 hours.
as §1, with “assay.” for “asset”, “analyze” for “analyzed”, “parasite/medium,” for “parasitelmedium,”

NC[C@@H]1O[C@H](O[C@H]2[C@@H](O)[C@H](O[C@@H]3[C@@H](O)[C@H](N)C[C@H](N)[C@H]3O[C@H]3O[C@H](CO)[C@@H](O)[C@H](O)[C@H]3N)O[C@@H]2CO)[C@H](N)[C@@H](O)[C@@H]1O [PRM, paromomycin]
inhibition at 2000 µg/mL (0 h, Table 5, 2000 μg/ml, drug added at 0 hrs, read-out: Inhibition Percent): 77.4%
inhibition at 2000 µg/mL (0 h, Table 5, 2000 μg/ml, drug added at 0 hrs, read-out: Inhibition Score): 71 to 90%
inhibition at 2000 µg/mL (2 h, Table 5, 2000 μg/ml, drug added at 2 hrs, read-out: Inhibition Percent): 89.4%
inhibition at 2000 µg/mL (2 h, Table 5, 2000 μg/ml, drug added at 2 hrs, read-out: Inhibition Score): 71 to 90%
inhibition at 250 µg/mL (4 h, Table 4 Washed at 4 hours, 250 μg/ml, read-out: Inhibition Percent): 59.3%
inhibition at 250 µg/mL (4 h, Table 4 Washed at 4 hours, 250 μg/ml, read-out: Inhibition Score): 56 to 70%
inhibition at 500 µg/mL (4 h, Table 4 Washed at 4 hours, 500 μg/ml, read-out: Inhibition Percent): 69.2%
inhibition at 500 µg/mL (4 h, Table 4 Washed at 4 hours, 500 μg/ml, read-out: Inhibition Score): 56 to 70%
inhibition at 1000 µg/mL (4 h, Table 4 Washed at 4 hours, 1000 μg/ml, read-out: Inhibition Percent): 79.2%
inhibition at 1000 µg/mL (4 h, Table 4 Washed at 4 hours, 1000 μg/ml, read-out: Inhibition Score): 71 to 90%
inhibition at 2000 µg/mL (4 h, Table 4 Washed at 4 hours, 2000 μg/ml, read-out: Inhibition Percent): 82.5%
inhibition at 2000 µg/mL (4 h, Table 4 Washed at 4 hours, 2000 μg/ml, read-out: Inhibition Score): 71 to 90%
inhibition at 2000 µg/mL (4 h, Table 5, 2000 μg/ml, drug added at 4 hrs, read-out: Inhibition Percent): 79%
inhibition at 2000 µg/mL (4 h, Table 5, 2000 μg/ml, drug added at 4 hrs, read-out: Inhibition Score): 71 to 90%
inhibition at 2000 µg/mL (8 h, Table 5, 2000 μg/ml, drug added at 8 hrs, read-out: Inhibition Percent): 72.2%
inhibition at 2000 µg/mL (8 h, Table 5, 2000 μg/ml, drug added at 8 hrs, read-out: Inhibition Score): 71 to 90%
inhibition at 2000 µg/mL (24 h, Table 5, 2000 μg/ml, drug added at 24 hrs, read-out: Inhibition Percent): 27%
inhibition at 2000 µg/mL (24 h, Table 5, 2000 μg/ml, drug added at 24 hrs, read-out: Inhibition Score): 0 to 30%
inhibition at 2000 µg/mL (Table 1, 2000 μg/ml, read-out: Inhibition Percent): 73.2%
inhibition at 2000 µg/mL (Table 1, 2000 μg/ml, read-out: Inhibition Score): 71 to 90%
inhibition at 2000 µg/mL (Table 2, 2 mg/ml, read-out: Inhibition Percent): 69.7%
inhibition at 2000 µg/mL (Table 2, 2 mg/ml, read-out: Inhibition Score): 56 to 70%
inhibition at 250 µg/mL (Table 3 Unwashed, 250 μg/ml, read-out: Inhibition Percent): 68%
inhibition at 250 µg/mL (Table 3 Unwashed, 250 μg/ml, read-out: Inhibition Score): 56 to 70%
inhibition at 500 µg/mL (Table 3 Unwashed, 500 μg/ml, read-out: Inhibition Percent): 71.9%
inhibition at 500 µg/mL (Table 3 Unwashed, 500 μg/ml, read-out: Inhibition Score): 71 to 90%
inhibition at 1000 µg/mL (Table 3 Unwashed, 1000 μg/ml, read-out: Inhibition Percent): 79.3%
inhibition at 1000 µg/mL (Table 3 Unwashed, 1000 μg/ml, read-out: Inhibition Score): 71 to 90%
inhibition at 2000 µg/mL (Table 3 Unwashed, 2000 μg/ml, read-out: Inhibition Percent): 81.9%
inhibition at 2000 µg/mL (Table 3 Unwashed, 2000 μg/ml, read-out: Inhibition Score): 71 to 90%
inhibition at 2000 µg/mL (Table 6, 2 mg/ml, read-out: Inhibition Percent): 76.3%
inhibition at 2000 µg/mL (Table 6, 2 mg/ml, read-out: Inhibition Score): 71 to 90%
Parasite Count (Table 1, 2000 μg/ml): 278.06
Inhibition Percent (Table 2, 2 mg/ml): 76.61%
Inhibition Score (Table 2, 2 mg/ml): 3 (3: 71-90%)
Parasite Count (Table 2, 2 mg/ml): 423.81
Parasite Count (Table 2, 2 mg/ml, listed as PRM/DMSO): 369.81
Parasite Count (Table 3 Unwashed, 250 μg/ml): 453.94
Parasite Count (Table 3 Unwashed, 500 μg/ml): 398.31
Parasite Count (Table 3 Unwashed, 1000 μg/ml): 293.56
Parasite Count (Table 3 Unwashed, 2000 μg/ml): 256.38
Parasite Count (Table 4 Washed at 4 hours, 250 μg/ml): 492.13
Parasite Count (Table 4 Washed at 4 hours, 500 μg/ml): 372.44
Parasite Count (Table 4 Washed at 4 hours, 1000 μg/ml): 251.88
Parasite Count (Table 4 Washed at 4 hours, 2000 μg/ml): 211.38
Parasite Count (Table 5, 2000 μg/ml, drug added at 0 hrs): 287.63
Parasite Count (Table 5, 2000 μg/ml, drug added at 2 hrs): 134.94
Parasite Count (Table 5, 2000 μg/ml, drug added at 4 hrs): 267.25
Parasite Count (Table 5, 2000 μg/ml, drug added at 8 hrs): 354.06
Parasite Count (Table 5, 2000 μg/ml, drug added at 24 hrs): 929.19
Parasite Count (Table 6, 2 mg/ml): 325.75
activity when drug is added 24 hours after infection (intracellular stages only): activity drops
